Values of other authors, collected in patent US9457044B2, “Methods and compositions for wound healing” (CoDa Therapeutics, Inc., priority 2006, dated 2016).

B1: KGF: keratinocyte growth factor (protein, UniProt P21781 32-194, looked up)
Fibroblast growth factor 7: CNDMTPEQMATNVNCSSPERHTRSYDYMEGGDIRVRRLFCRTQWYLRIDKRGKVKGTQEMKNNYNIMEIRTVAVGIVAIKGVESEFYLAMNKEGKLYAKKECNEDCNFKELILENHYNTYASAKWTHNGGEMFVALNQKGIPVRGKKTKKEQKTAHFLPMAIT

Conditions: cited from earlier work

Row | Molecule | effective dose when applied topically (U.S. Pat. No. 4,861,757) | concentration effective for wound healing by topical application to epithelial tissue (about 50 μl, Sotozono et al. 1995)
1 | PDGF | ≥ 5 ng/mm^2 | –
2 | B1 | – | about 5 μg/ml
